Data reported in patent USRE46907E1, “Suppression of cancer growth and metastasis using nordihydroguaiaretic acid derivatives with metabolic modulators” (THE JOHNS HOPKINS UNIVERSITY, priority 2008, dated 2018).

Key:
PKCδ [1] = assay: Western blotting of total PKCδ and phosphor-PKCδ (Thr505) in 4T1 cells; assay type: cell-based, mouse; conditions: 4T1, 5 hrs; M4N 80 μM, Ro 5 μM, Ly 20 μM, Des 150 μM
Experimental: (§1) The sample volumes were adjusted by the total protein amount. Protein assay was performed by Bio-Rad Protein Assay (Bio-Rad Laboratories, Inc. Hercules, Calif.). The samples were resolved by the standard SDS-polyacrylamide gel electrophoresis and transferred to nitrocellulose membrane (Amersham Biosciences, Bjorkgatan, Sweden). The membranes were blocked with skim milk, and incubated with primary antibodies at 4° C. overnight and then with secondary antibody conjugated with horse radish peroxidase at room temperature for 2 hrs. The signals were detected by western blot chemiluminescence reagent plus (New England Nuclear Life Science Products, Boston, Mass.).

4T1 cells = assay: MTT cell growth assay in 4T1 cells; assay type: cell-based, mouse
Experimental: Cell Culture Either cell line 4T1 or 67NR was a gift from Dr. Miller (20). The cells were cultured in RPMI1640 medium supplemented with glucose (14 mM), pyruvate (1 mM), penicillin (100 units/ml), streptomycin (100 μg/ml), and fetal bovine serum (10%), buffered with 25 mM HEPES (pH 7.4). LNCaP human prostate cancer cell line was purchased from American Type Culture Collection (Manassas, Va.). The cell line was cultured in RPMI1640 medium supplemented with glucose (14 mM), pyruvate (1 mM), penicillin (100 units/ml), streptomycin (100 μg/ml), and fetal bovine serum (10%). Drugs were dissolved in dimethyl sulfoxide (DMSO) at a suitable concentration so that the final concentration of DMSO in the medium was less than 0.1%.
MTT assay: Cells were incubated in PBS (−) supplemented with 5% fetal calf serum and 0.5 mg/ml MTT, 3-(4,5-Dimethylthiazol-2-yl)-2,5-diphenyltetrazolium bromide (Sigma, Saint Louis, Mo.) for 2 hrs. After the incubation, the cells were dissolved in dimethyl sulfoxide and the color of the solutions was measured by a spectrophotometer at wavelengths of 540 and 690 nm. The values correlated with viable cell numbers were obtained by subtracting the optical density at 690 nm from that, at 540 nm.

PKCδ [2] = assay: Western blotting of total PKCδ and phosphor-PKCδ (Thr505) in 67NR cells; assay type: cell-based, mouse; conditions: 5 hrs, M4N 80 μM, Ro 5 μM, Ly 20 μM, Des 150 μM
Experimental: as §1

PKCδ [3] = assay: Immunocytochemistry of PKCδ cellular localization in 4T1 cells; assay type: cell-based, mouse; conditions: 4T1, 5 hrs
Experimental: Immunocytocheimstry: Cells were cultured on glass cover slips coated with poly-L-ornithine (Sigma, Saint Louis, Mo.). At 5 hrs after treatment with drugs, the cells were fixed with 10% formaldehyde in diluted in PBS (−) and washed with PBS (−) three times. After permeabilized by 0.2% Tryton X-100 and 1% goat serum diluted in PBS (−), the cells were blocked by PBS (−) containing 5% goat serum. The cells were then incubated with primary antibodies diluted in PBS (−) containing 0.5% bovine serum albumin (BSA), and with secondary antibodies, which is either anti-IgG conjugated with fluorescein (Vector Laboratories. Burlingame, Calif.), diluted in PBS (−) containing 0.5% BSA. The cells were observed through Zeiss fluorescent microscope (Carl Zeiss, Thornwood, N.Y.).

HIF [4] = assay: Western blotting of HIF in 67NR cells; assay type: cell-based, mouse; conditions: M4N 80 μM
Experimental: (§2) Western blotting: After cells had been grown in […] flasks and treated with reagents, the cells were washed with PBS (−) three times and suspended in RIP A buffer (150 mM NaCl, 50 mM Tris-HCl (pH 8,0), 0.1% SDS, 1% NP40, and 0.5% deoxycholate) supplemented with protease inhibitor cocktail (Calbiochem, San Diego, Calif.). The sample volumes were adjusted by the total protein amount. Protein assay was performed by Bio-Rad Protein Assay (Bio-Rad Laboratories, Inc. Hercules, Calif.). The samples were resolved by the standard SDS-polyacrylamide gel electrophoresis and transferred to nitrocellulose membrane (Amersham Biosciences, Bjorkgatan, Sweden). The membranes were blocked with skim milk, and incubated with primary antibodies at 4° C. overnight and then with secondary antibody conjugated with horse radish peroxidase at room temperature for 2 hrs. The signals were detected by western blot chemiluminescence reagent plus (New England Nuclear Life Science Products, Boston, Mass.).

67NR cells = assay: 67NR tumor-bearing Balb/c mice (life-span); assay type: in vivo, mouse; conditions: 5×10^4 cells, M4N 1 mg/shot, Rottlerin 100 μg/shot, three days a week from day 8
Experimental: Animals: Female Balb/e mice were obtained from Charles River Laboratories (Wilmington, Mass.). M4N and Rottlerin were dissolved into a solvent, CPE (25/30) solvent system supplied by Erimos Pharmaceutical, L.L.C. (Raleigh, N.C.) and injected into mice either intravenously or intraperitoneally, T-cell deficient male nude mice (nu/nu) were obtained from Charles River Laboratories (Wilmington, Mass.). M4N and Ly294002 were dissolved into a solvent, CPE (25/30) solvent system supplied by Erimos Pharmaceutical, L.L.C. (Raleigh, N.C.) and injected into mice intravenously.
Tumor inoculation: Either 4T1 or 67NR cells were grown as described above. Cells growing subconfluently were collected and resuspended into the tissue culture medium minus fetal bovine serum and antibiotics, After counting the number of the cells, the cell concentration was adjusted. Twenty μl of the solution containing a selected number of cancer cells (either 5×10^3 or 5×10^4 cells) was injected into each fat pad of a pair of mammary glands located close to lower limbs. Tumor size was measured by weighing tumors extracted from mouse cadavers.

HIF [5] = assay: Western blotting of HIF in 4T1 cells; assay type: cell-based, mouse; conditions: 4T1, M4N 80 μM
Experimental: as §2

caspase-9 = assay: Western blotting of caspase-9 cleavage in 67NR cells; assay type: cell-based, mouse; conditions: 5 hrs, Rottlerin 5 μM, M4N 80 μM
Experimental: as §2

COc1ccc(C[C@@H](C)[C@@H](C)Cc2ccc(OC)c(OC)c2)cc1OC [M4N, tetra-O-methyl nordihydroguaiaretic acid]
amount of phosphorylated PKCδ at Thr505 (PKCδ [1]): induced phosphorylation | cell growth (MTT) at 20 μM (4T1 cells; 4T1, 20 μM): significant effect of the drug to reduce cell growth | concentration at which cell growth stopped (4T1 cells; 4T1, MTT): 80 µM | time after treatment at which effect on cell growth was evident (4T1 cells; 4T1, MTT): 42 h | cell growth (MTT) (4T1 cells; 4T1, different concentrations of M4N): reduced the cell growth of 4T1 cells depending on the concentration of the drug | amount of phosphorylated PKCδ at Thr505 (PKCδ [2]): induced phosphorylation | cellular distribution / nuclear staining of total PKCδ (PKCδ [3]): did not change much | nuclear staining for phosphor-PKCδ (Thr505) in the presence of Des (PKCδ [3]; with Desferoxamine 150 μM): markedly augmented nuclear staining | nuclear staining for phosphor-PKCδ (Thr505) (PKCδ [3]; without Desferoxamine co-treatment): augmented staining | effect on Desferoxamine-mediated HIF induction (HIF [4]): instead enhanced | life-span of 67NR-bearing mice (67NR cells): didn't have much effect on the life-span | effect on Desferoxamine-mediated HIF induction (HIF [5]): slightly suppressed | caspase-9 activation (cleavage) (caspase-9): slightly further augmented
